tested on: HT-29; assay: Anticancer activity aganist human HT-29 cells; assay type: functional; details: read-out: ED50 (the source's name)

| Compound | EC50 [nM] |
| --- | --- |
| CC(C)=CCC[C@]1(C)C=Cc2c(O)c3c(c(CC=C(C)C)c2O1)O[C@]12C(=C[C@@H]4C[C@H]1C(C)(C)O[C@@]2(C/C=C(/C)C(=O)O)C4=O)C3=O [GAMBOGIC ACID] | 480 |
| CC(=O)O[C@H]1C(=O)[C@@]2(C)[C@H]([C@H](OC(=O)c3ccccc3)[C@]3(O)C[C@H](OC(=O)[C@H](O)[C@@H](NC(=O)c4ccccc4)c4ccccc4)C(C)=C1C3(C)C)[C@]1(OC(C)=O)CO[C@@H]1C[C@@H]2O [PACLITAXEL] | 0.1 |
| CC(C)=CCc1c2c(c(O)c3c1O[C@]14C(=C[C@@H]5C[C@H]1C(C)(C)O[C@@]4(C/C=C(/C)C(=O)O)C5=O)C3=O)C=CC(C)(C)O2 | 360 |
